Values quoted from earlier work as cited in US20180344730A1, “MEDICAMENT FOR TREATING MENTAL AND BEHAVIOURAL DISORDERS” (Sumitomo Dainippon Pharma Co., Ltd., priority 2012, published 2018).

Assays:
[1] = target: T1, serotonin 5-HT1A receptors (Homo sapiens, UniProt P08908)
T1 sequence (P08908 1-422): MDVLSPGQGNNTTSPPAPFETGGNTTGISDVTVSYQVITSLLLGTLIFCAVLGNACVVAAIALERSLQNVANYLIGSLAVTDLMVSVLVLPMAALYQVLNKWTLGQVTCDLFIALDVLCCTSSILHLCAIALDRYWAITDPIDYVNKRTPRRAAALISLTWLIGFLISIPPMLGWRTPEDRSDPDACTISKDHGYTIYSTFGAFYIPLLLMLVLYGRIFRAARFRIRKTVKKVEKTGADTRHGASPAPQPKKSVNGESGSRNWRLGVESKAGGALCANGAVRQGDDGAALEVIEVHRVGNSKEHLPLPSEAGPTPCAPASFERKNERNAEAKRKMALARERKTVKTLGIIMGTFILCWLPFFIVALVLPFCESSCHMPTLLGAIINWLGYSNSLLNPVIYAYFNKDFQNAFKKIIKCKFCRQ

muscarinic M1 receptors = target: T2, muscarinic M1 receptors (Homo sapiens, UniProt P11229)
T2 sequence (P11229 1-460): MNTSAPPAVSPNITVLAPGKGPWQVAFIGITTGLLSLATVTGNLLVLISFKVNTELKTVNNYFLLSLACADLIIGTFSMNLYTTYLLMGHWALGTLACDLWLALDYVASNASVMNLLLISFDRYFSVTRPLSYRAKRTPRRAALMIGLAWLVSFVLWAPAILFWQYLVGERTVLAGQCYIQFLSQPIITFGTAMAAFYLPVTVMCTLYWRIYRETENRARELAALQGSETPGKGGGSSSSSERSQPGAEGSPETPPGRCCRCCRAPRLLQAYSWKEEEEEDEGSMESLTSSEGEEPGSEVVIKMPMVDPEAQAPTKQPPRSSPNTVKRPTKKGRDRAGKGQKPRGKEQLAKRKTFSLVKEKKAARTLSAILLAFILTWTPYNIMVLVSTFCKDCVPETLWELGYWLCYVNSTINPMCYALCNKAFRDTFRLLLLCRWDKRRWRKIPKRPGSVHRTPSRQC

dopamine D2 receptors = dopamine D2 receptors (Homo sapiens, UniProt P14416)
Chain of dopamine D2 receptors (P14416 whole entry): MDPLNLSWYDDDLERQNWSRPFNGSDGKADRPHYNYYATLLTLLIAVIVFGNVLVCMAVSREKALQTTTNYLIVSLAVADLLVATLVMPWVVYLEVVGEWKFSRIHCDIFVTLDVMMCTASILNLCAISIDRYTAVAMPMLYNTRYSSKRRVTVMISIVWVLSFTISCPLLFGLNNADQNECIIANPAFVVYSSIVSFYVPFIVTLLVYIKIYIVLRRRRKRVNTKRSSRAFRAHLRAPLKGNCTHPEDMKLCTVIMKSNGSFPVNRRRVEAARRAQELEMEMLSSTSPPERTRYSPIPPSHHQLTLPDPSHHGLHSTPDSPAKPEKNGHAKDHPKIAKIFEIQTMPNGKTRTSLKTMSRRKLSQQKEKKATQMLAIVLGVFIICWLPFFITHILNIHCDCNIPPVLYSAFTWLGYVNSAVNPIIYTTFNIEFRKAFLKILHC

[2] = target: T3, noradrenaline α2C receptors (Homo sapiens, UniProt P18825)
T3 sequence (P18825 1-462): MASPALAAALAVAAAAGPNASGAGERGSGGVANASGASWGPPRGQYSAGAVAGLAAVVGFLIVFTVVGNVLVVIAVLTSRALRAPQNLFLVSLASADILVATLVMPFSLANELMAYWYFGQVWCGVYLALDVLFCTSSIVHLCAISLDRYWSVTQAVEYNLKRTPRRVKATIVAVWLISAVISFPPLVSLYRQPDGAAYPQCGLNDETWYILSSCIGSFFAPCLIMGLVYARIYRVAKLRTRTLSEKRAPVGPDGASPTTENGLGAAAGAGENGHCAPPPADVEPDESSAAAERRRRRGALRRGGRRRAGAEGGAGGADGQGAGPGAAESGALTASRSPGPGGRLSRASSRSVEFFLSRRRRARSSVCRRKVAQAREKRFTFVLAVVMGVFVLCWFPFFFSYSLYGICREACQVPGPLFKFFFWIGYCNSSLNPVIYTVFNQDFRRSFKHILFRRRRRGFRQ

[3] = target: serotonin 5-HT7 receptors (Homo sapiens, UniProt P34969)
Chain of serotonin 5-HT7 receptors (P34969 whole entry): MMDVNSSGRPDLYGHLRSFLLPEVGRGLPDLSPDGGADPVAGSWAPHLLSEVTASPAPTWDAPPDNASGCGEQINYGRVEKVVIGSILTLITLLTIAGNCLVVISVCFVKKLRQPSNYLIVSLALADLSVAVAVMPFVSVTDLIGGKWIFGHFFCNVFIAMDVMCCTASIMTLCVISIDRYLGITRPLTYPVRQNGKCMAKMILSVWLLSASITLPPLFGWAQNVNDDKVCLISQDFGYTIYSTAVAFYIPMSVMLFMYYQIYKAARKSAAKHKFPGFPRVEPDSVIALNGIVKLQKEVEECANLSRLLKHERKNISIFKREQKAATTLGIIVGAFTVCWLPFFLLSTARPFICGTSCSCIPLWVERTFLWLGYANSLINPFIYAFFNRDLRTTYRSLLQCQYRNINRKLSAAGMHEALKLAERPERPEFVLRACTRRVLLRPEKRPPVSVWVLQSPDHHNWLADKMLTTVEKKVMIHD

[4] = target: serotonin 5-HT2A receptors (Homo sapiens, UniProt P28223)
Chain of serotonin 5-HT2A receptors (P28223 whole entry): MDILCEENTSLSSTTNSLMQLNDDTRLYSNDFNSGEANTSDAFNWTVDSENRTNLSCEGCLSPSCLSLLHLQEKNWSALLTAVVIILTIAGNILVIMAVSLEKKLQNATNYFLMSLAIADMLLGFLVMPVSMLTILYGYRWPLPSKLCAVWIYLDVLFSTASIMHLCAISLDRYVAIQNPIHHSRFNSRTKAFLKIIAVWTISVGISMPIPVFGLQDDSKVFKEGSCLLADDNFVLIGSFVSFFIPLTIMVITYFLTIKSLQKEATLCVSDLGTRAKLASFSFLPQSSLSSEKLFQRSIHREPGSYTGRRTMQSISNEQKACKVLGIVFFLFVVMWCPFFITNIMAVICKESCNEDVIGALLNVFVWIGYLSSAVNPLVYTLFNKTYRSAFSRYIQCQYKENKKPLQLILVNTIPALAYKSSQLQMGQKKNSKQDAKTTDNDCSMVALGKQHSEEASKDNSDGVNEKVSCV

histamine H1 receptors = histamine H1 receptors (Homo sapiens, UniProt P35367)
Chain of histamine H1 receptors (P35367 whole entry): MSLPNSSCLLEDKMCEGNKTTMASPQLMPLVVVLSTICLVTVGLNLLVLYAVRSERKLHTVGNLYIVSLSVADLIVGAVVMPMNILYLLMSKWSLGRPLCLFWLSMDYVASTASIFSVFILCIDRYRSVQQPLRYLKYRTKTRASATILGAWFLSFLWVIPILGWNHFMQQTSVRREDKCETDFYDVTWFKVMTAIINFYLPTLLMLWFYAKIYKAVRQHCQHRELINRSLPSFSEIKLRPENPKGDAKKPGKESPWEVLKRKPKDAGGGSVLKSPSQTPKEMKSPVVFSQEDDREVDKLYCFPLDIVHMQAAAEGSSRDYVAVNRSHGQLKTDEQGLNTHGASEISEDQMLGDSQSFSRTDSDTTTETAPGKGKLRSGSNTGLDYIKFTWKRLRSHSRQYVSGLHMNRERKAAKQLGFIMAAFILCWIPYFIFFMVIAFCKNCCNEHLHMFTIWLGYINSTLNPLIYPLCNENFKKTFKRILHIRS

For O=C1[C@@H]2[C@H]3CC[C@H](C3)[C@@H]2C(=O)N1C[C@@H]1CCCC[C@H]1CN1CCN(c2nsc3ccccc23)CC1 [Lurasidone, (3aR, 4S, 7R, 7aS)-2-{(1R, 2R)-2-[4-(1,2-benzisothiazol-3-yl)piperazin-1-ylmethyl]cyclo-hexylmethyl}hexahydro-4,7-methano-2H-isoindole-1,3-dione], the “affinity for serotonin 5-HT1A receptors” value [1] is listed as “high affinity”, the “affinity for muscarinic M1 receptors” value (muscarinic M1 receptors) is listed as “minimal to no affinity” and the “affinity for dopamine D2 receptors” value (dopamine D2 receptors) is listed as “high affinity”. For the same compound, the “affinity for noradrenaline α2C receptors” value [2] was “high affinity”, the “affinity for serotonin 5-HT7 receptors” value [3] was “high affinity” and the “affinity for serotonin 5-HT2A receptors” value [4] was “high affinity”. For the same compound, the “affinity for histamine H1 receptors” value (histamine H1 receptors) was “minimal to no affinity”.
